Earlier results, collected in US10759826B2, “15β-substituted estrone derivatives as selective inhibitors of 17β-hydroxysteroid-dehydrogenases, method of preparation and use thereof” (USTAV ORGANICKE CHEMIE A BIOCHEMIE AV CR, V.V.I., priority 2016, dated 2020).

Test system: T-47D ER+ cells
Conditions: Laplante et al. 2008; cited from earlier work

Compound: C[C@]12CC[C@@H]3c4ccc(O)cc4CC[C@H]3[C@@H]1C[C@H](Cc1cccc(C(N)=O)c1)[C@@H]2O [Compound E2B, 16β-m-carbamoylbenzyl-E2]
- reduction of proliferation induced by the physiological level of E1: 62%
